# According to patent publication US11261160B2, “Process for the preparation of N-(4-(6,7-dimethoxyquinolin-4-yloxy)phenyl)-N′-(4-fluorophenyl)cyclopropane-1, 1-dicarboxamide, (2S)-hydroxybutanedioate and its polymorphs thereof” (MSN LABORATORIES PRIVATE LIMITED, R&D CENTER, priority 2016, dated 2022):
# Tests used:
# [1] = Thermal stability at 60° C. (P-XRD); format: physicochemical; conditions: heating in a vacuum dryer at 60° C. for 24 hours; 3.0 gms sample
# Protocol: Thermal Stability at 60° C.:
# Samples of crystalline form-S of Cabozantinib (S)-malate (3.0 gms) is subjected to heating in a vacuum dryer at 60° C. for 24 hours.
# (§1) PXRD analysis of compounds produced by the present invention were carried out using BRUKER IDS ADVANCE/AXS X-Ray diffractometer using Cu Kα radiation of wavelength 1.5406 A° and continuous scan speed of 0.03°/min.
# [2] = Hygroscopic stability for 24 hours (P-XRD); format: physicochemical; conditions: kept in the desiccator for 24 hours; 3.0 gms sample
# Protocol: Hygroscopic Stability for 24 Hours:
# Samples of crystalline form-S of Cabozantinib (S)-malate (3.0 gms) is kept in the desiccator for 24 hours.
# as §1
structure (smiles),measurement,setting,value
"COc1cc2nccc(Oc3ccc(NC(=O)C4(C(=O)Nc5ccc(F)cc5)CC4)cc3)c2cc1OC.O=C(O)C[C@H](O)C(=O)O [N-(4-(6,7-dimethoxyquinolin-4-yloxy)phenyl)-N′-(4-fluorophenyl)cyclopropane-1,1-dicarboxamide (S)-malate]",Thermal stability at 60° C. by P-XRD pattern,[1],stable
same,Hygroscopic stability for 24 hours by P-XRD pattern,[2],stable
